Reference: the METLIN SMRT retention time set (Domingo-Almenara et al. 2019)

Assay: gradient 5% acetonitrile 3 min, to 50% in 2 min, to 85% in 15 min, held 3 min, 100 µL/min
Settings: column: Zorbax Extend-C18 2.1 x 50 mm; eluents: water / acetonitrile, 0.1% formic acid
In short: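 Retention times of pure standards were taken from adduct peaks that were selected by computer and manually inspected. Over 3 months, mixtures of ~100 molecules were run by HPLC–quadrupole time-of-flight mass spectrometry in positive and negative ionization mode. The Zorbax Extend-C18 column (2.1 × 50 mm, 1.8 μm) ran at 100 μL/min in water and acetonitrile, each containing 0.1% formic acid, with 40 μL dead volume and 900 μL dwell volume.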

Cc1cc(=O)n(CC(=O)Nc2ccc(F)cc2)c(-c2ccc(F)cc2)n1
RP-LC retention time: 1040 s

CN(C)c1ccc(CCNC(=O)C(=O)NC2CC2)cc1
RP-LC retention time: 523 s

COc1ccccc1CNC(=O)CN1CCN(Cc2ccc(F)cc2)C1=O
RP-LC retention time: 778 s

COc1cccc(-n2ccc(=O)c(-c3nc(-c4ccc(OC)c(OC)c4)no3)n2)c1
RP-LC retention time: 817 s

Cc1cc(CN2CCC(CNC(=O)C(=O)NCc3ccc4c(c3)OCO4)CC2)c(C)o1
RP-LC retention time: 583 s

Cc1ccc(NC(=O)CSc2nnc3c4cc(-c5ccc(F)cc5)nn4ccn23)c(C)c1
RP-LC retention time: 931 s

Cc1ccc(CNC(=O)CN2C(=O)CCc3cc(Br)ccc32)cc1
RP-LC retention time: 917 s

Cc1nc(-c2csc(S(=O)(=O)N3CCCC(C(=O)N(C)Cc4ccccc4)C3)c2)no1 (configuration not stated)
RP-LC retention time: 939 s

O=C(NCc1cccc(Cl)c1)C1CCN(c2cncnc2N2CCOCC2)CC1
RP-LC retention time: 647 s

CCOc1ccc(-c2cc3c(=O)n(Cc4nc(-c5cccc(Br)c5)no4)ncn3n2)cc1
RP-LC retention time: 1280 s

CC(C)n1cnc2cc(CNC(=O)c3cccc(C(F)(F)F)c3)ccc21
RP-LC retention time: 675 s

Cc1cccc(NC(=O)NC2CCN(c3ccccc3)C2=O)c1 (configuration not stated)
RP-LC retention time: 814 s

COc1cc(-c2nnc(-c3ccc(C)c(S(=O)(=O)N(C)C)c3)o2)cc(OC)c1OC
RP-LC retention time: 936 s

CC(NC(=O)c1ccccc1)c1nc(-c2cccc(-c3ccnn3C)c2)no1 (configuration not stated)
RP-LC retention time: 840 s

COc1cccc(NC(=O)C2CCN(c3nnc4c(Cl)cccn34)CC2)c1
RP-LC retention time: 666 s

Cc1ccc(NC(=O)N2CCN(c3cnn4c(C5CC5)nnc4c3)CC2)cc1
RP-LC retention time: 653 s

O=C(c1ccncc1)N1CCCn2nc(-c3ccc(Cl)cc3)cc2C1
RP-LC retention time: 719 s

COC(=O)C1=CN(c2cc(C)ccc2OC)c2ccccc2S1(=O)=O
RP-LC retention time: 894 s

Cc1cccc(CNC(=O)c2cc(C(C)(C)C)n3nccc3n2)c1
RP-LC retention time: 1230 s

CCNS(=O)(=O)c1cc(-c2c(C)noc2C)ccc1C
RP-LC retention time: 807 s

O=C(NCCc1c[nH]c2ccccc12)c1cc2occc2c(Nc2ccc(F)cc2)n1
RP-LC retention time: 1020 s

O=C(NCc1ccnc(N2CCSCC2)c1)Nc1ccc(F)c(Cl)c1
RP-LC retention time: 673 s

COc1cccc(N2CCN(Cc3nc(-c4ccc(N5CCCC(C)C5)nc4)no3)CC2)c1 (configuration not stated)
RP-LC retention time: 882 s

Cc1ccccc1Oc1nccnc1N1CCC(C(=O)NC(C)CCc2ccccc2)CC1 (configuration not stated)
RP-LC retention time: 1120 s

CN(C)S(=O)(=O)N1CCCC(c2nc(-c3cccnc3)no2)CCNC(=O)CC1 (configuration not stated)
RP-LC retention time: 641 s

Cc1cc(-c2csc(S(=O)(=O)N(Cc3ccco3)C3CCCC3)c2)on1
RP-LC retention time: 1110 s

Cc1ccc(Nc2c(-c3cccc(O)c3)nc3cnccn23)c(Br)c1
RP-LC retention time: 843 s

CC(Oc1ccc(=O)n(-c2ccc(F)cc2)n1)C(=O)Nc1ccccc1Cl (configuration not stated)
RP-LC retention time: 826 s

CCc1nc(-c2csc(S(=O)(=O)N3CCCC(C(=O)NCc4ccccn4)C3)c2)no1 (configuration not stated)
RP-LC retention time: 681 s

COc1ccc(C2=Nc3ccccc3N(CC(=O)Nc3ccc4c(c3)OCCO4)C(=O)C2)cc1
RP-LC retention time: 913 s

Cc1cccc(NC(=O)Nc2cnc3c(c2)CCC3)c1
RP-LC retention time: 578 s

COc1ccccc1C(=O)NCCn1cc(SCC(N)=O)c2ccccc21
RP-LC retention time: 680 s

Fc1cccc(CN2CCC(N3CC4(CCCCC4)C3c3ccncc3)CC2)c1 (configuration not stated)
RP-LC retention time: 560 s

CC1=C(c2ccccc2)S(=O)(=O)N=C1N1CCCN(C(=O)c2ccccc2F)CC1
RP-LC retention time: 802 s

Cc1ccc(N2CCC(NC(=O)Cc3ccccc3C)C2=O)cc1C (configuration not stated)
RP-LC retention time: 893 s

COc1ccc(-c2ncc3c(n2)CCN(C(=O)Nc2c(F)cccc2F)C3)cc1
RP-LC retention time: 658 s

CCN1CCN(S(=O)(=O)c2cc(-c3nnc(C4CC4)o3)co2)CC1
RP-LC retention time: 587 s
